Inconclusive results are not listed.

The test system of this test is S. cerevisiae PHO84-LacZ reporter, HDAC inhibition. As to the kind of experiment: HDAC inhibitors via yeast reporter, S. cerevisiae, PHO84-LacZ (AID 1582).
Take `CCC(C)[C@H]1O[C@]2(C=C[C@@H]1C)C[C@@H]1C[C@@H](C/C=C(\C)[C@@H](OC3C[C@H](OC)C(O[C@H]4C[C@H](OC)[C@@H](O)[C@H](C)O4)[C@H](C)O3)[C@@H](C)/C=C/C=C3\CO[C@@H]4[C@H](O)C(C)=C[C@@H](C(=O)O1)[C@]34O)O2` (some centres not stated): the EC50 (in general, the concentration needed to bring the measured effect to its halfway point) was 66 µM.
Take `N#Cc1ccc2c(c1)N(CCCN1CCC(O)CC1)c1ccccc1S2`: the EC50 was 148 µM.
Consider `NCCCCN`, for which the EC50 was 125 µM.
In the case of `COc1cc(C)c2c(=O)cc(-c3ccccc3)oc2c1`, the EC50 was 60 µM.
In the case of `c1ccc2[nH]c(-c3cscn3)nc2c1`, the EC50 is 148 µM.
As for `CN(Cc1cnc2nc(N)nc(N)c2n1)c1ccc(C(=O)N[C@@H](CCC(=O)O)C(=O)O)cc1`, the figure is 78 µM; as for `CC(C(=O)O)c1ccc(N2Cc3ccccc3C2=O)cc1` (configuration not stated), 50 µM.

The record behind these values is PubChem BioAssay AID1582.
